Experimental data as given in patent US20260115185A1, “QUINOLINE DERIVATIVES WHICH ACT AS KAPPA-OPIOID RECEPTOR ANTAGONISTS” (The Scripps Research Institute, priority 2023, published 2026).

How the values were obtained:
mu opioid receptor (MOR) = biological target: T1, mu opioid receptor (MOR) (Homo sapiens, UniProt P35372); test: OPRMu1 Discover X β-arrestin Assay, antagonist mode (U2OS cells, DAMGO EC80 challenge); type: cell-based
T1 construct: host or cells: U2OS (Discover X OPRMu1-U2OS, PathHunter)
T1 sequence (P35372 whole entry): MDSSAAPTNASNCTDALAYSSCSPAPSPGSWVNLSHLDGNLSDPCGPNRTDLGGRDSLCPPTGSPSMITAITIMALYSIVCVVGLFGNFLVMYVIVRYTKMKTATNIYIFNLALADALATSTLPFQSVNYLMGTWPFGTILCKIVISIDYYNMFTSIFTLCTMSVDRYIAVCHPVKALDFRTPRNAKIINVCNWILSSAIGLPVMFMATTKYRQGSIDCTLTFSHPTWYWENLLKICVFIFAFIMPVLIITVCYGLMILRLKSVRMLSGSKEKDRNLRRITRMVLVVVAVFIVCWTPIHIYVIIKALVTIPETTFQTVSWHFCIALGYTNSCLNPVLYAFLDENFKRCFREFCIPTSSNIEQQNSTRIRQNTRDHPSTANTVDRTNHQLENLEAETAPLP
Summary of the method: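 PathHunter U2OS cells with β-gal fragment-complementation readout for β-arrestin recruitment to OPRMu1. Cells were preincubated with compound (10-point, 1:3 series from nominal 10 micromolar) for 30 min at 37 °C, then challenged with 303 nM DAMGO (EC80) for 3 h. Luminescence gave percent inhibition.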

[1] = biological target: T2, kappa opioid receptor (KOR) (Homo sapiens, UniProt P41145); test: OPRKappa 1 Tango B-Arrestin Assay, antagonist mode (Tango OPRK1-bla U2OS cells, U50488 EC80 challenge); type: cell-based; conditions: for Selectivity (MOR/KOR): Kappa selectivity, MOR IC50 / KOR IC50; for IC50: antagonist mode, Tango OPRK1-bla U2OS cells, 6 nM U50488 challenge
T2 construct: host or cells: U2OS (Tango OPRK1-bla U2OS)
T2 sequence (P41145 whole entry): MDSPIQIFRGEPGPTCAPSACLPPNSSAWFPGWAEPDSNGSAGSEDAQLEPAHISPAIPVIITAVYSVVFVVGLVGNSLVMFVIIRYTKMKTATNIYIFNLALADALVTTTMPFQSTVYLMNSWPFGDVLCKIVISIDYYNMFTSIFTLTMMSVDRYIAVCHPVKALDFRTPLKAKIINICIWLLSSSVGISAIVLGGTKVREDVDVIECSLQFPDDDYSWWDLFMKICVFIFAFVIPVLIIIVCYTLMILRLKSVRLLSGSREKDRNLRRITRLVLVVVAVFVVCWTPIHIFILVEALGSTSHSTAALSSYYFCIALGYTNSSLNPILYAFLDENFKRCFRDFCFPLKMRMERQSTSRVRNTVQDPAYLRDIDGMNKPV
Summary of the method: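 Tango OPRK1-bla U2OS cells, β-arrestin recruitment read as β-lactamase FRET (CCF4-AM, 460/590 nm emission). Compounds, 10-point 1:3 series from nominal 10 µM in quadruplicate, preincubated 30 min at 37 °C, then challenged with U50488 at 6 nM final (EC80) for 4 h; percent inhibition from median ratio.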

IC50 (mu opioid receptor (MOR)) | IC50 [1] | SMILES | Selectivity (MOR/KOR) [1]
> 1000 nM | 1 to 10 nM | CCc1cc(F)c2nc(N3CCN(C(=O)[C@H](C)N4CCCC4)C[C@H]3C)c(-c3nc(C)no3)c(C)c2c1 [Compound 191] | ++++ (more than 1000-fold selectivity over MOR)
> 1000 nM | < 1 nM | CCc1cc(F)c2nc(N3CC[C@@H](N[C@@H]4CCCOC4)C[C@@H]3C)c(-c3ccn(C)n3)c(C)c2c1 [Compound 120] | ++++ (more than 1000-fold selectivity over MOR)
100 to 1000 nM | 1 to 10 nM | CCc1cc(F)c2nc(N3CCC(N[C@H]4CCOC[C@@H]4F)CC3)c(-c3cc(C)n(C)n3)c(C)c2c1 [Compound 3, 1-(3-(1,5-dimethyl-1H-pyrazol-3-yl)-6-ethyl-8-fluoro-4-methylquinolin-2-yl)-N-((3R,4S)-3-fluorotetrahydro-2H-pyran-4-yl)piperidin-4-amine] | +++ (between 100- to 1000-fold selective)
100 to 1000 nM | 1 to 10 nM | CCc1cc(F)c2nc(N3CCC(N[C@@H]4CCCC(F)(F)C4)CC3)c(-c3ccn(C)n3)c(C)c2c1 [Compound 74] | ++ (between 10- and 100-fold selectivity)
> 1000 nM | > 1000 nM | CCc1cc(-c2ccnn2C)c2nc(N3CCC(N4CCOC[C@@H]4C)CC3)c(-c3ccn(C)n3)c(C)c2c1 [Compound 92] | –
> 1000 nM | 1 to 10 nM | CCc1cc(F)c2nc(N3CCN(C(=O)[C@@H]4C[C@@H](O)CN4C)C[C@H]3C)c(-c3cc(C)no3)c(C)c2c1 [Compound 167] | +++ (between 100- to 1000-fold selective)
100 to 1000 nM | 1 to 10 nM | CCc1cc(F)c2nc(N3CC[C@H](N[C@@H]4CCOC4)[C@@H](C)C3)c(-c3ccn(C)n3)c(C)c2c1 [Compound 108] | +++ (between 100- to 1000-fold selective)
> 1000 nM | 10 to 100 nM | CCc1cc(F)c2nc(N3CCN(C(=O)[C@@H]4C[C@@H](O)CN4C)C[C@H]3C)c(-c3nc(C)no3)c(C)c2c1 [Compound 160] | +++ (between 100- to 1000-fold selective)
> 1000 nM | 1 to 10 nM | CCc1cc(F)c2nc(N3CCN(C(=O)CN(CC)CC)C[C@H]3C)c(-c3ccn(C)n3)c(C)c2c1 [Compound 176] | +++ (between 100- to 1000-fold selective)
> 1000 nM | 10 to 100 nM | CCc1cc(F)c2nc(N3CCC(N[C@@H]4CCOC4)CC3)c(-c3cc(C(F)(F)F)n(C)n3)c(C)c2c1 [Compound 85] | +++ (between 100- to 1000-fold selective)
100 to 1000 nM | 1 to 10 nM | CCc1cc(F)c2nc(N3CCN(C(=O)CN4CCC(F)(F)CC4)C[C@H]3C)c(-c3nc(C)no3)c(C)c2c1 [Compound 156] | ++ (between 10- and 100-fold selectivity)
> 1000 nM | 10 to 100 nM | CCc1cc(F)c2nc(N3CCN(C(=O)CN(C)C)C[C@H]3C)c(-c3cc(C)no3)c(C)c2c1 [Compound 181] | +++ (between 100- to 1000-fold selective)
> 1000 nM | ≥ 100 nM | CCc1cc(F)c2nc(N3CCN(C(=O)[C@H](Cc4ccccc4)N(C)C)C[C@H]3C)c(-c3nc(C)no3)c(C)c2c1 [Compound 52] | ++ (between 10- and 100-fold selectivity)
10 to 100 nM | 1 to 10 nM | CCc1cc(-c2ccnn2C)c2nc(N3CCC(N[C@H]4CCOC[C@H]4F)CC3)c(-c3ccn(C)n3)c(C)c2c1 [Compound 21, 1-(6-ethyl-4-methyl-3-(1-methyl-1H-pyrazol-3-yl)-8-(1-methyl-1H-pyrazol-5-yl)quinolin-2-yl)-N-((3S,4S)-3-fluorotetrahydro-2H-pyran-4-yl)piperidin-4-amine] | ++ (between 10- and 100-fold selectivity)

The remaining lines, values behind:

SMILES | IC50 (mu opioid receptor (MOR)) | IC50 [1] | Selectivity (MOR/KOR) [1]
CCc1cc(F)c2nc(N3CCN(/C(=N/C#N)NC4CC(F)(F)C4)C[C@H]3C)c(-c3nc(C)no3)c(C)c2c1 [Compound 54] | 10 to 100 nM | < 1 nM | +++ (between 100- to 1000-fold selective)
CCN/C(=N/C#N)N1CCN(c2nc3c(F)cc(CC)cc3c(C)c2-c2ccn(C)n2)[C@H](C)C1 [Compound 10, (R,E)-N′-cyano-N-ethyl-4-(6-ethyl-8-fluoro-4-methyl-3-(1-methyl-1H-pyrazol-3-yl)quinolin-2-yl)-3-methylpiperazine-1-carboximidamide] | > 1000 nM | ≥ 100 nM | ++ (between 10- and 100-fold selectivity)
CCc1cc(F)c2nc(N3CCC(N[C@@H]4COC[C@@H]4F)CC3)c(-c3ccn(C)n3)c(C)c2c1 [Compound 71, 1-(6-ethyl-8-fluoro-4-methyl-3-(1-methyl-1H-pyrazol-3-yl)quinolin-2-yl)-N-((3R,4R)-4-fluorotetrahydrofuran-3-yl)piperidin-4-amine] | > 1000 nM | 1 to 10 nM | +++ (between 100- to 1000-fold selective)
CCc1cc(F)c2nc(N3CCNC[C@H]3C)c(-c3ccn(C)n3)c(C)c2c1 [Compound 13, (R)-6-ethyl-8-fluoro-4-methyl-3-(1-methyl-1H-pyrazol-3-yl)-2-(2-methylpiperazin-1-yl)quinoline] | > 1000 nM | ≥ 100 nM | ++ (between 10- and 100-fold selectivity)
CCc1cc(F)c2nc(N3CCN(C(=O)C(C)(C)N4CCCC4)C[C@H]3C)c(-c3ccn(C)n3)c(C)c2c1 [Compound 169] | > 1000 nM | 1 to 10 nM | ++ (between 10- and 100-fold selectivity)
CCc1cc(F)c2nc(N3CCN(C[C@@H]4CCOC4)C[C@H]3C)c(-c3ccn(C)n3)c(C)c2c1 [Compound 57] | > 1000 nM | ≥ 100 nM | ++ (between 10- and 100-fold selectivity)
CCc1cc(F)c2nc(N3CCN(C(=O)[C@H](C)N4CC[C@@H](O)C4)C[C@H]3C)c(-c3nc(C)no3)c(C)c2c1 [Compound 150] | > 1000 nM | ≥ 100 nM | +++ (between 100- to 1000-fold selective)
CCc1cc(-c2ccnn2C)c2nc(N3CCN(C[C@@H]4CCOC4)C[C@H]3C)c(-c3ccn(C)n3)c(C)c2c1 [Compound 97] | > 1000 nM | 1 to 10 nM | +++ (between 100- to 1000-fold selective)
CCc1cc(-c2ccnn2C)c2nc(N3CCN(C[C@H]4CCOC4)C[C@H]3C)c(-c3ccn(C)n3)c(C)c2c1 [Compound 98] | > 1000 nM | 10 to 100 nM | +++ (between 100- to 1000-fold selective)
CCc1cc(F)c2nc(N3CCN(C(=O)[C@H]4CCCCN4C)C[C@H]3C)c(-c3nc(C)no3)c(C)c2c1 [Compound 189] | > 1000 nM | 1 to 10 nM | ++++ (more than 1000-fold selectivity over MOR)
CCc1cc(F)c2nc(N3CCN(C[C@H]4CCCO4)C[C@H]3C)c(-c3nc(C)no3)c(C)c2c1 [Compound 30] | > 1000 nM | 1 to 10 nM | +++ (between 100- to 1000-fold selective)
CCc1cc(F)c2nc(N3CCN([C@H]4CCOC4)C[C@H]3C)c(-c3nc(C)no3)c(C)c2c1 [Compound 33] | > 1000 nM | 1 to 10 nM | +++ (between 100- to 1000-fold selective)
CCc1cc(F)c2nc(N3CCN(C(=O)[C@@H](C)N4CC[C@@H](F)C4)C[C@H]3C)c(-c3nc(C)no3)c(C)c2c1 [Compound 147] | 100 to 1000 nM | 1 to 10 nM | +++ (between 100- to 1000-fold selective)
CCc1cc(F)c2nc(N3CC[C@H](NC4CCOCC4)[C@H](F)C3)c(-c3cc(C(F)(F)F)n(C)n3)c(C)c2c1 (stereo in doubt) [Compound 83] | > 1000 nM | ≥ 100 nM | +++ (between 100- to 1000-fold selective)
CCc1cc(F)c2nc(N3CCN(C(=O)[C@H](C)N4CCCC4)C[C@H]3C)c(-c3nc(C)no3)c(C)c2c1 [Compound 201] | 100 to 1000 nM | 1 to 10 nM | +++ (between 100- to 1000-fold selective)
CCc1cc(-c2ccn(C)n2)c2nc(N3CCC(N[C@H]4CCOC4)CC3)c(-c3ccn(C)n3)c(C)c2c1 [Compound 99] | > 1000 nM | < 1 nM | ++++ (more than 1000-fold selectivity over MOR)
CCc1cc(F)c2nc(N3CC[C@H](N[C@@H]4CCOC4)C[C@H]3C)c(-c3ccn(C)n3)c(C)c2c1 [Compound 118] | 100 to 1000 nM | < 1 nM | ++++ (more than 1000-fold selectivity over MOR)
CCc1cc(F)c2nc(N3CC[C@H](N[C@@H]4CCOC4)[C@H](C)C3)c(-c3ccn(C)n3)c(C)c2c1 [Compound 107] | > 1000 nM | 10 to 100 nM | +++ (between 100- to 1000-fold selective)
CCc1cc(F)c2nc(N3CCN(C(=O)[C@H]4CCCN4C)C[C@H]3C)c(-c3nc(C)no3)c(C)c2c1 [Compound 183] | > 1000 nM | 1 to 10 nM | ++++ (more than 1000-fold selectivity over MOR)
CCc1cc(-c2ccnn2C)c2nc(N3CCC(N)CC3)c(-c3ccn(C)n3)c(C)c2c1 [Compound 23, 1-(6-ethyl-4-methyl-3-(1-methyl-1H-pyrazol-3-yl)-8-(1-methyl-1H-pyrazol-5-yl)quinolin-2-yl)piperidin-4-amine] | > 1000 nM | ≥ 100 nM | + (less than 10-fold selectivity)
